Our source for the IC50 values is US10617680B2 (CELGENE QUANTICEL RESEARCH, INC., priority 2017, dated 2020).

This experiment deals with CBP (Homo sapiens (Human), UniProt Q92793). Put plainly: In vitro CBP inhibition (AlphaScreen, biotinylated H4-tetraacetyl peptide). Type of experiment: binding. Particulars: AlphaScreen, Table 29; read-out: CBP IC50. On the procedure: The CBP-inhibitory activity of the compounds described herein was determined by calculating the IC50. More specifically, CBP inhibitor activity was assayed as follows: CBP was cloned and expressed in E. coli as His-tag protein and purified by Nickel affinity and gel-filtration chromatography. […] CBP binding and inhibition is assessed by monitoring the interaction of biotinylated H4-tetraacetyl peptide (AnaSpec, H4K5/8/12/16(Ac), biotin-labeled) with the target using the AlphaScreen technology (Perkin Elmer). In a 384-well ProxiPlate CBP (50 nM final) was combined with peptide (20 nM final) in 50 mM HEPES (pH 7.3), 10 mM NaCl, 0.25 mM TCEP, 0.1% (w/v) BSA, and 0.005% (w/v) Brij-35 either in the presence of DMSO (final 0.4% DMSO) or compound dilution series in DMSO. After 20 min incubation at room temp, Alpha-streptavidin donor beads and Nickel Chelate acceptor beads were added to a final concentration of 5 μg/mL.
CBP, sequence (Q92793 1081-1197): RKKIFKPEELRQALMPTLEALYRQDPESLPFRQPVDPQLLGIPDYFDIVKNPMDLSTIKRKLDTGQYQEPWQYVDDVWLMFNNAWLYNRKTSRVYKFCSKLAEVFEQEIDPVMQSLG
The ability of the compounds disclosed herein to inhibit CBP activity was quantified and the respective IC50 value determined.
Background: In Alpha technology, singlet oxygen from a donor bead excites a nearby acceptor bead.
Consider `CC(c1ccccc1)n1cc(-c2cn(C)c(=O)cc2OCc2ccn(C)n2)cn1` (stereo not shown) [Example 44, 1-methyl-4-((1-methyl-1H-pyrazol-3-yl)methoxy)-5-(1-(1-phenyl-ethyl)-1H-pyrazol-4-yl) pyridin-2(1H)-one], for which the half-inhibitory concentration (IC50) is less than 500 nM.
In the case of `CC(C)Oc1cc(=O)n(C)cc1-c1cnn([C@H](C)c2ccccc2)c1` [Example 45, (R)-4-isopropoxy-1-methyl-5-(1-(1-phenylethyl)-1H-pyrazol-4-yl) pyridin-2(1H)-one], the half-maximal inhibitory concentration (IC50) is less than 500 nM.
On to `CC(C)Oc1cc(=O)n(C)cc1-c1cnn([C@@H](C)c2ccccc2)c1` [Example 46, (S)-4-isopropoxy-1-methyl-5-(1-(1-phenylethyl)-1H-pyrazol-4-yl) pyridin-2(1H)-one], for which the IC50 is less than 500 nM.
For the molecule `C[C@@H](c1ccccc1)n1cc(-c2cn(C)c(=O)cc2N2CCCC2)cn1` [Example 47, (S)-1-methyl-5-(1-(1-phenylethyl)-1H-pyrazol-4-yl)-4-(pyrrolidin-1-yl)pyridin-2(1H)-one], the IC50 is less than 500 nM.
On to `CC(C)COc1cc(=O)n(C)cc1-c1cnn(C(C)c2ccccc2)c1` (stereo not shown) [Example 48, 4-isobutoxy-1-methyl-5-(1-(1-phenylethyl)-1H-pyrazol-4-yl) pyridin-2(1H)-one], for which the IC50 was less than 500 nM.
Turning to `CC(c1ccccc1)n1cc(-c2cn(C)c(=O)cc2OC2CCC2)cn1` (stereo not shown) [Example 49, 4-cyclobutoxy-1-methyl-5-(1-(1-phenylethyl)-1H-pyrazol-4-yl) pyridin-2(1H)-one], the IC50 was less than 500 nM.
In the case of `CC(=O)N1CC(Oc2cc(=O)n(C)cc2-c2cnn(C(C)c3ccccc3)c2)C1` (stereo not shown) [Example 50, 4-((1-acetylazetidin-3-yl)oxy)-1-methyl-5-(1-(1-phenylethyl)-1H-pyrazol-4-yl)pyridin-2(1H)-one], the IC50 is less than 500 nM.
As to `CC(c1ccccc1)n1cc(-c2cn(C)c(=O)cc2OC2CCCC2)cn1` (stereo not shown) [Example 51, 4-(cyclopentyloxy)-1-methyl-5-(1-(1-phenylethyl)-1H-pyrazol-4-yl) pyridin-2(1H)-one], the IC50 was less than 500 nM.
For the molecule `CC(c1ccccc1)n1cc(-c2cn(C)c(=O)cc2OC2CCCCC2)cn1` (stereo not shown) [Example 52, 4-(cyclohexyloxy)-1-methyl-5-(1-(1-phenylethyl)-1H-pyrazol-4-yl) pyridin-2(1H)-one], the IC50 was less than 500 nM.
`CC(c1ccccc1)n1cc(-c2cn(C)c(=O)cc2-n2cccn2)cn1` (stereo not shown) [Example 53, 1-methyl-5-(1-(1-phenylethyl)-1H-pyrazol-4-yl)-4-(1H-pyrazol-1-yl) pyridin-2(1H)-one]: the IC50 was less than 500 nM.
As for `CC1CN(c2cc(=O)n(C)cc2-c2cnn(C(C)c3ccccc3)c2)C1` (stereo not shown) [Example 54, 1-methyl-4-(3-methylazetidin-1-yl)-5-(1-(1-phenylethyl)-1H-pyrazol-4-yl)pyridin-2(1H)-one], the figure is less than 500 nM.
The figure for `C[C@H](c1ccccc1)n1cc(-c2cn(C)c(=O)cc2N2CCCC2)cn1` [Example 55, (R)-1-methyl-5-(1-(1-phenylethyl)-1H-pyrazol-4-yl)-4-(pyrrolidin-1-yl)pyridin-2(1H)-one] is less than 500 nM; for `CC(c1ccccc1)n1cc(-c2cn(C)c(=O)cc2OCc2ccccc2)cn1` (stereo not shown) [Example 56, 4-(benzyloxy)-1-methyl-5-(1-(1-phenylethyl)-1H-pyrazol-4-yl) pyridin-2(1H)-one] it is less than 500 nM.
For `CC(c1ccccc1)n1cc(-c2cn(C)c(=O)cc2Oc2ccccc2)cn1` (stereo not shown) [Example 57, 1-methyl-4-phenoxy-5-(1-(1-phenylethyl)-1H-pyrazol-4-yl) pyridin-2(1H)-one], the IC50 lay within 500 to 5000 nM.
For `COC1CN(c2cc(=O)n(C)cc2-c2cnn(C(C)c3ccccc3)c2)C1` (stereo not shown) [Example 58, 4-(3-methoxyazetidin-1-yl)-1-methyl-5-(1-(1-phenylethyl)-1H-pyrazol-4-yl)pyridin-2(1H)-one], the IC50 was 500 to 5000 nM.
On to `CC(c1ccccc1)n1cc(-c2cn(C)c(=O)cc2OC2CC2)cn1` (stereo not shown) [Example 59, 4-cyclopropoxy-1-methyl-5-(1-(1-phenylethyl)-1H-pyrazol-4-yl) pyridin-2(1H)-one], for which the IC50 was less than 500 nM.
With `C[C@@H](c1ccccc1)n1cc(-c2cn(C)c(=O)cc2-n2cccn2)cn1` [Example 60, (S)-1-methyl-5-(1-(1-phenylethyl)-1H-pyrazol-4-yl)-4-(1H-pyrazol-1-yl)pyridin-2(1H)-one], the IC50 is less than 500 nM.
As to `C[C@H](c1ccccc1)n1cc(-c2cn(C)c(=O)cc2-n2cccn2)cn1` [Example 61, (R)-1-methyl-5-(1-(1-phenylethyl)-1H-pyrazol-4-yl)-4-(1H-pyrazol-1-yl)pyridin-2(1H)-one], the IC50 is less than 500 nM.
Take `CCOc1cc(=O)n(C)cc1-c1cnn(C(C)c2ccc(C)cc2)c1` (stereo not shown) [Example 62, 4-ethoxy-1-methyl-5-(1-(1-(p-tolyl)ethyl)-1H-pyrazol-4-yl) pyridin-2(1H)-one]: the IC50 was less than 500 nM.
As for `CCOc1cc(=O)n(C)cc1-c1cnn(C(C)c2ccc(-c3ccccc3)cc2)c1` (stereo not shown) [Example 63, 5-(1-(1-([1,1′-biphenyl]-4-yl)ethyl)-1H-pyrazol-4-yl)-4-ethoxy-1-methylpyridin-2(1H)-one], the figure is less than 500 nM.
For `CCOc1cc(=O)n(C)cc1-c1cnn(Cc2ccccc2)c1` [Example 64, 5-(1-benzyl-1H-pyrazol-4-yl)-4-ethoxy-1-methylpyridin-2(1H)-one], the IC50 was less than 500 nM.
Turning to `CCOc1cc(=O)n(C)cc1-c1cnn(Cc2ccc(C)cc2)c1` [Example 65, 4-ethoxy-1-methyl-5-(1-(4-methylbenzyl)-1H-pyrazol-4-yl) pyridin-2(1H)-one], the half-maximal inhibitory concentration (IC50) was less than 500 nM.
Regarding `Cn1cc(-c2cnn(Cc3ccccc3)c2)c(-n2cccn2)cc1=O` [Example 66, 5-(1-benzyl-1H-pyrazol-4-yl)-1-methyl-4-(1H-pyrazol-1-yl) pyridin-2(1H)-one], the IC50 lay within 500 to 5000 nM.
As to `Cn1cc(-c2cnn(Cc3ccccc3)c2)c(N2CCOCC2)cc1=O` [Example 67, 5-(1-benzyl-1H-pyrazol-4-yl)-1-methyl-4-morpholino-pyridin-2(1H)-one], the concentration for half-maximal inhibition (IC50) was less than 500 nM.
The figure for `Cn1cc(-c2cnn(Cc3ccccc3)c2)c(-n2cccc2)cc1=O` [Example 68, 5-(1-benzyl-1H-pyrazol-4-yl)-1-methyl-4-(1H-pyrrol-1-yl) pyridi-2(1H)-one] is less than 500 nM; for `CCOc1cc(=O)n(C)cc1-c1cn[nH]c1` [Example 69, 4-ethoxy-1-methyl-5-(1H-pyrazol-4-yl)pyridin-2(1H)-one] it is less than 500 nM.
With `CCOc1cc(=O)n(C)cc1-c1cnn(Cc2ccccc2C(=O)OC)c1` [Example 70, methyl 2-((4-(4-ethoxy-1-methyl-6-oxo-1,6-dihydropyridin-3-yl)-1H-pyrazol-1-yl)methyl)benzoate], the IC50 was less than 500 nM.
As to `CCOc1cc(=O)n(C)cc1-c1cnn(Cc2cccc(C(=O)OC)c2)c1` [Example 71, methyl 3-((4-(4-ethoxy-1-methyl-6-oxo-1,6-dihydropyridin-3-yl)-1H-pyrazol-1-yl)methyl)benzoate], the IC50 was less than 500 nM.
Consider `CC(=O)N[C@@H]1CCN(c2cc(=O)n(C)cc2-c2cnn(Cc3ccccc3)c2)C1` [Example 72, (R)-N-(1-(5-(1-benzyl-1H-pyrazol-4-yl)-1-methyl-2-oxo-1,2-dihydropyridin-4-yl)pyrrolidin-3-yl)acctamide], for which the IC50 fell in the range of 500 to 5000 nM.
On to `CC(=O)N[C@H]1CCN(c2cc(=O)n(C)cc2-c2cnn(Cc3ccccc3)c2)C1` [Example 73, (S)-N-(1-(5-(1-benzyl-1H-pyrazol-4-yl)-1-methyl-2-oxo-1,2-dihydropyridin-4-yl)pyrrolidin-3-yl) acetamide], for which the IC50 fell in the range of 500 to 5000 nM.
On to `Cn1cc(-c2cnn(Cc3ccccc3)c2)c(N2CC[C@H](C(=O)O)C2)cc1=O` [Example 75, (S)-1-(5-(1-benzyl-1H-pyrazol-4-yl)-1-methyl-2-oxo-1,2-dihydro-pyridin-4-yl)pyrrolidine-3-carboxylic acid], for which the IC50 is less than 500 nM.
For `CNC(=O)c1ccn(-c2cc(=O)n(C)cc2-c2cnn(Cc3ccccc3)c2)c1` [Example 76], the IC50 is less than 500 nM.
As for `COC(=O)c1ccn(-c2cc(=O)n(C)cc2-c2cnn(Cc3ccccc3)c2)c1` [Example 77, methyl 1-(5-(1-benzyl-1H-pyrazol-4-yl)-1-methyl-2-oxo-1,2-dihydro-pyridin-4-yl)-1H-pyrrole-3-carboxylate], the figure is less than 500 nM; as for `CN(C)C(=O)c1ccn(-c2cc(=O)n(C)cc2-c2cnn(Cc3ccccc3)c2)c1` [Example 78, 1-(5-(1-benzyl-1H-pyrazol-4-yl)-1-methyl-2-oxo-1,2-dihydropyridin-4-yl)-N,N-dimethyl-1H-pyrrole-3carboxamide], less than 500 nM.
Turning to `Cn1cc(-c2cnn(Cc3ccccc3)c2)c(-n2ccc(C(=O)O)c2)cc1=O` [Example 79, 1-(5-(1-benzyl-1H-pyrazol-4-yl)-1-methyl-2-oxo-1,2-dihydropyridin-4-yl)-1H-pyrrole-3-carboxylic acid], the 50% inhibitory concentration (IC50) is less than 500 nM.
The figure for `Cn1cc(-c2cnn(Cc3ccccc3)c2)c(-n2ccc(C#N)c2)cc1=O` [Example 80, 1-(5-(1-benzyl-1H-pyrazol-4-yl)-1-methyl-2-oxo-1,2-dihydropyridin-4-yl)-1H-pyrrole-3-carbonitrile] is less than 500 nM; for `CCNC(=O)c1ccn(-c2cc(=O)n(C)cc2-c2cnn(Cc3ccccc3)c2)c1` [Example 81, 1-(5-(1-benzyl-1H-pyrazol-4-yl)-1-methyl-2-oxo-1,2-dihydro-pyridin-4-yl)-N-ethyl-1H-pyrrole-3-carboxamide] it is less than 500 nM.

The term IC50 denotes the concentration that gives 50% inhibition.
